Test results published in the supplement of paper PMC5844555.

Assays:
Experiment in all cases: 3' UTR reporter interaction score (median-centred robust z-score of log2 firefly/Renilla activity); higher = less repression of the 3' UTR reporter
Details in all cases: HEK293T; 48 h
[1] = system: ZEB2
How it was run: (§1)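 The interaction score is based on the log-transformed firefly/Renilla luciferase ratio, scaled as a robust z-score within each plate by median and median absolute deviation and median-centred for each miRNA; more negative scores indicate interaction. It was averaged over at least two independent screens. Readings were taken 48 h after HEK293T cells (10,000/well, 96-well plates) were co-transfected by DharmaFECT Duo with 100 ng firefly luc2P 3' UTR reporter, 20 ng Renilla pRL-TK and 2.5 pmol miRNA mimic.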

[2] = system: MYB
How it was run: as §1

[3] = system: BRCA2
How it was run: as §1

[4] = system: PHF6
How it was run: as §1

[5] = system: PHOX2B
How it was run: as §1

[6] = system: FBXW7
How it was run: as §1

[7] = system: MYC
How it was run: as §1

[8] = system: TP53
How it was run: as §1

[9] = system: RB1
How it was run: as §1

[10] = system: HRAS
How it was run: as §1

[11] = system: EZH2
How it was run: as §1

[12] = system: NOTCH1
How it was run: as §1

[13] = system: MYT1L
How it was run: as §1

[14] = system: MYCN
How it was run: as §1

Sequence | 3' UTR reporter interaction score [1] | 3' UTR reporter interaction score [2] | 3' UTR reporter interaction score [3] | 3' UTR reporter interaction score [4] | 3' UTR reporter interaction score [5] | 3' UTR reporter interaction score [6] | 3' UTR reporter interaction score [7] | 3' UTR reporter interaction score [8] | 3' UTR reporter interaction score [9] | 3' UTR reporter interaction score [10] | 3' UTR reporter interaction score [11] | 3' UTR reporter interaction score [12] | 3' UTR reporter interaction score [13] | 3' UTR reporter interaction score [14]
AAUCAUACAGGGACAUCCAGUU | -0.725 | 0.0607 | -0.401 | -0.265 | 1.38 | 0.98 | 0.273 | -0.0235 | -0.451 | 0.163 | 1.15 | -0.77 | 0.474 | -0.994
AAUCCUUGGAACCUAGGUGUGAGU | -0.171 | 0.656 | 0.643 | 0.0671 | -0.851 | -0.342 | 1.33 | -0.232 | -0.422 | 0.739 | 0.207 | -0.594 | -4.11 | 0.204
AAUCCUUUGUCCCUGGGUGAGA | 0.439 | -0.9 | 0.853 | -0.0711 | -0.304 | 0.455 | 0.916 | -0.735 | 0.615 | 0.171 | -0.257 | 1.42 | -2.16 | 0.972
AAUGACACGAUCACUCCCGUUGA | 0.878 | -0.032 | -1.49 | -0.214 | -0.699 | 0.139 | 0.235 | 0.759 | -0.373 | 0.792 | 0.0535 | -1.98 | -0.645 | -0.341
AAUGGCGCCACUAGGGUUGUGCA | 0.407 | 0.208 | -0.437 | 0.0523 | 1.04 | -0.576 | -0.44 | -0.436 | -0.957 | -0.363 | -0.534 | -0.589 | -0.00801 | 0.439
AAUUGCACUUUAGCAAUGGUGA | -2.8 | -0.332 | 1.07 | 2.86 | 0.339 | -4.25 | 0.3 | -1.5 | 1.39 | -0.0471 | -0.64 | -0.161 | 0.317 | 0.969
ACAAAGUGCUUCCCUUUAGAGU | 0.377 | 0.129 | -0.366 | -0.537 | 1.29 | 0.628 | -0.239 | -0.415 | -0.344 | 0.332 | -0.0342 | 0.795 | -0.45 | -0.183
ACAAAGUGCUUCCCUUUAGAGUGU | -0.058 | 0.347 | -0.733 | -0.618 | 1.18 | -0.043 | -0.0807 | -0.281 | 0.896 | 0.36 | -0.507 | 0.486 | -0.448 | -0.406
ACAGCAGGCACAGACAGGCAG | 1.63 | -0.134 | -0.408 | 1.37 | 0.072 | -0.152 | -0.0632 | -0.292 | 0.215 | -0.306 | -1.08 | 0.191 | -1.17 | -0.201
ACAGUCUGCUGAGGUUGGAGC | 1.65 | -0.0786 | 0.137 | 0.259 | 0.189 | -0.12 | -0.486 | -0.638 | -1.36 | -0.732 | 0.0759 | 0.0668 | -0.4 | 0.116
ACAUAGAGGAAAUUCCACGUUU | -1.25 | -0.866 | 1.12 | 1.27 | -1.91 | -1.56 | -0.782 | 1.11 | 0.821 | -0.449 | 0.213 | 0.306 | -0.235 | 0.704
ACCAUCGACCGUUGAUUGUACC | 0.294 | 0.0907 | 0.723 | 1.81 | 0.0128 | -0.0205 | -0.128 | 0.659 | -0.388 | -0.526 | 0.789 | -0.491 | -2.64 | 0.598
ACCCUAUCAAUAUUGUCUCUGC | 0.936 | 0.329 | -0.211 | 0.779 | -0.0439 | 0.326 | 0.123 | -0.169 | -0.979 | -0.283 | -0.658 | -0.0515 | -0.388 | 0.109
ACUAGACUGAAGCUCCUUGAGG | -0.765 | 0.78 | 0.363 | -0.216 | -2.05 | -1.12 | 0.201 | 0.442 | 1.2 | 0.196 | 0.526 | -0.733 | 0.327 | 0.903
ACUCAAAACCCUUCAGUGACUU | 0.456 | -1.17 | 0.794 | 1.5 | -0.184 | 0.994 | -0.294 | 1.13 | -0.026 | -0.68 | 0.495 | 0.701 | -0.111 | -0.913
ACUCAAAAUGGGGGCGCUUUCC | 0.347 | -0.497 | -0.27 | 2.12 | 0.0383 | -0.231 | 0.445 | -0.765 | 0.824 | 0.68 | 0.137 | -0.52 | 0.0549 | -0.623
ACUCCAGCCCCACAGCCUCAGC | -0.519 | 0.784 | -0.443 | -1.69 | 1.37 | -1.03 | -0.755 | -0.602 | 0.647 | 0.232 | -0.117 | -0.369 | -0.581 | 0.185
ACUCCAUUUGUUUUGAUGAUGGA | 0.912 | -0.2 | -0.329 | 0.594 | 0.953 | -0.453 | -0.0596 | 0.239 | -0.0878 | -0.269 | -0.0207 | -0.518 | -0.15 | 0.165
ACUGCAGUGAAGGCACUUGU | -0.791 | 0.157 | 0.0527 | -0.789 | -0.6 | -0.112 | 0.291 | -0.642 | -0.0483 | 0.389 | -0.638 | 0.45 | -0.459 | 0.762
